Laboratory results: patent US5258371A, “Method to reduce connective tissue destruction” (Kuraray Co., Ltd., priority 1992, dated 1993)

Legend:
collagenase [1] = biological target: T1, collagenase (Oryctolagus cuniculus, UniProt P13943); experiment: Collagenase inhibition test (in vitro), decomposition of FITC-labelled collagen; type: biochemical, Japanese white rabbit; settings: for IC50: collagenase from IL-1-stimulated rabbit chondrocyte culture supernatant, trypsin-activated, 35° C., 5% DMSO, read-out: Concentration of Drug Showing 50% Inhibition, IC50; for anti-collagenase activity (in words): refers to Test Example; for collagenase inhibition activity as a multiple of that of DMAT: relative to DMAT (control), from Table 1
T1 construct: endogenous in cells; host or cells: primary knee articular chondrocytes of Japanese white rabbit, stimulated with human recombinant interleukin-1 ('Interleukin-1a' in the source); culture supernatant
T1 sequence (P13943 99-468): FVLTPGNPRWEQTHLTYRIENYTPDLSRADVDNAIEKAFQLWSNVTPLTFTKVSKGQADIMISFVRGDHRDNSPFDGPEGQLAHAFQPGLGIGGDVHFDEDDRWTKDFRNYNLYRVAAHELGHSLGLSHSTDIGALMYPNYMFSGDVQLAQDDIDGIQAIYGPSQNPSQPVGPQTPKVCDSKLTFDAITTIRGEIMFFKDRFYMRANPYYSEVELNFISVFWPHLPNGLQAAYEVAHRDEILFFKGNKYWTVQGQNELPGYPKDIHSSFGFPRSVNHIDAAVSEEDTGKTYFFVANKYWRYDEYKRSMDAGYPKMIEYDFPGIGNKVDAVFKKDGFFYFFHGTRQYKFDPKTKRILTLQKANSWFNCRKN
Procedure: The tetracycline derivatives used in the present invention were tested for collagenase inhibition (in vitro), and for suppression of destruction of articular cartilage using rabbit osteoarthritis models (in vivo).
The knee articular cartilage of a Japanese white rabbit (4 weeks old) was aseptically taken out. The cartilage cells (chondrocytes) were separated according to the method of S. Collier et al [Ann. Rheum. […] In 30 ml of Ham's F12 culture medium (containing 10% fetal bovine serum) 4×10^6 cartilage cells were suspended and the medium was incubated at 37° C. in a 150 cm^2 incubation flask (made by Iwaki Glass Co., Japan) and under an air atmosphere containing 5% carbon dioxide. The medium was replaced every 3 to 4 days. When the cells propagated to the state of confluence (7 to 9 days after the start of incubation), the medium was replaced by Ham's F12 serum-free culture medium (30 units/ml of human recombinant Interleukin-1a made by Genzyme Co., USA) and 0.4% lactalbumin hydrolysate (made by Sigma Co., USA) and incubation was conducted for 4 days. The culture supernatant was taken and used as the collagenase solution to be tested.
The collagenase activity was expressed based on the decomposition of 1 μg of collagen at 35° C. in 1 minute being equal to 1 unit.
A solution of a drug to be tested was dissolved in dimethyl sulfoxide (DMSO), then was added to the collagenase assay solution. The final concentration of DMSO is 5%. The inhibition ratio of the drug was calculated based on the collagen decomposition activity without its addition being 100%.

collagenase [2] = settings: J. Dent. Res., 66, 1310 (1987) and others; cited from earlier work
bone resorption = settings: J. Dent. Res., 66, 1310 (1987) and others; cited from earlier work
[3] = compared to tetracyclines; cited from earlier work
rheumatoid arthritis = rheumatoid arthritis patients; J. Rheumatol., 17, 43 (1990); cited from earlier work
collagenase [4] = settings: periodontal diseases; J. Periodontal Res., 18, 516 (1983); cited from earlier work
[5] = tested on: articular cartilage in rabbit osteoarthritis models; experiment: Test for suppression of destruction of articular cartilage using rabbit osteoarthritis models (partial lateral meniscectomy); type: in vivo, New Zealand white rabbit
Procedure: The tetracycline derivatives used in the present invention were tested for collagenase inhibition (in vitro), and for suppression of destruction of articular cartilage using rabbit osteoarthritis models (in vivo). The tetracycline derivatives tested were the mixture of DODMAT-2 and DODMAT-3 obtained in Synthesis Example 1 (hereinafter this mixture is referred to as "DODMAT mixture" and DOTC (mixture of isomers) obtained in Synthesis Example 2. DMAT was used as control.
The rabbit osteoarthritis models were made by the partial lateral meniscectomy procedure according to the method of C. Colombo et al [Arthritis Rheum., 26, 875 (1983)]. Adult male New Zealand white rabbits weighing approximately 3 kg each were used. The animals were anesthetized by intramuscular injection of 40 mg/kg Ketamine and 1.6 mg/kg Xylazine before surgery. The surgery was conducted as follows; the right knee was opened laterally, the fibular collateral ligament was exposed and 3-4 mm were removed. Subsequently, 3-4 mm of the sesamoid ligament were removed, followed by removal of 4-5 mm of the anterior lateral area of the exposed meniscus. The capsule and skin were then sutured. Following surgery, each animal daily received intramuscular injection of 2 mg/kg/day Dibekacin sulfate for a week to be protected from infection. The animals were sustained on standard rabbit pellets and tap water ad libitum during experiment.
The test drug (DODMAT mixture) or vehicle began 1 week post-surgery and continued every 7 days per week for 5 weeks. DODMAT, suspended in a vehicle aqueous solution containing 1% methyl cellulose, 0.8% sodium chloride, and 0.1% polysorbate 80, was administered orally by gavage. […] The histologic slides were coded and evaluated blind for 11 parameters, which are set forth in Table 2, using a scoring system of +1 to +4 for each type of abnormality as described by C. […] The data were analyzed by the one-sided Wilcoxon rank sum method.

For `C[C@@]1(O)c2cccc(O)c2C(=O)C2=C(O)[C@]3(O)C(=O)C(C(N)=O)=C(O)CC3CC21` (stereo partly drawn) [DMAT, 4-dedimethylaminotetracycline], the IC50 (collagenase [1]) is given as 300 µM, the “collagenase inhibition compared to tetracyclines (in words)” value (collagenase [2]) is given as “compares favorably to tetracyclines with respect to collagenase inhibition” and the “suppression of bone resorption compared to tetracyclines (in words)” value (bone resorption) is given as “compares favorably to tetracyclines with respect to collagenase inhibition, suppression of bone resorption”. For the same compound, the “antibacterial activity (in words)” value [3] was “without the same antibacterial activity”.
With 12a-deoxytetracycline [DOTC] the IC50 (collagenase [1]) was 22 µM, the “anti-collagenase activity (in words)” value (collagenase [1]) was “excellent anti-collagenase activity” and the “collagenase inhibition activity as a multiple of that of DMAT” value (collagenase [1]) was “at least 10 times”.
In the case of `CN(C)c1ccc(O)c2c1C[C@H]1C[C@H]3[C@H](N(C)C)C(O)=C(C(N)=O)C(=O)[C@@]3(O)C(O)=C1C2=O` [minocycline], the “time after start of administration at which appreciable effects were observed” value (rheumatoid arthritis) is listed as 4 months and the “anti-collagenolytic activity (in words)” value (collagenase [4]) is listed as “anti-collagenolytic activity”.
In the case of “4-dedimethylamino-12a-deoxytetracycline [DODMAT mixture]”, the IC50 (collagenase [1]) is reported as 2.5 µM, the “anti-collagenase activity (in words)” value (collagenase [1]) is reported as “excellent anti-collagenase activity” and the “collagenase inhibition activity as a multiple of that of DMAT” value (collagenase [1]) is reported as “at least 10 times”. For the same compound, the “Mean score of cartilage lesions ± S.E.” value ([5]; 15 mg/kg/day orally by gavage, 5 weeks from 1 week post-surgery, 9 animals, p < 0.05 (one-sided Wilcoxon rank sum), vehicle 46.6 ± 7.3 (7 animals)) was 24.7 ± 3.3, the “improvement resulting from treatment” value ([5]; cartilage lesion score versus vehicle, 15 mg/kg/day oral) was “at least 47%” and the “suppression of destruction of articular cartilages (in words)” value ([5]; rabbit osteoarthritis models) was “significant suppression of destruction of articular cartilages”.
